# Assay results as given in ChEMBL document CHEMBL1687767, “New antiseptic peptides to protect against endotoxin-mediated shock” (Antimicrob Agents Chemother, 2010).
# Active and inactive are the calls of the source. No cut-off for these calls is given here. Residues, ends and D or L forms follow the SMILES beside them.
# How the values were obtained:
# Staphylococcus aureus [1] = experiment: Antimicrobial activity against methicillin-resistant Staphylococcus aureus CUN 3792-99 by broth microdilution method; type: functional
# [2] = Toxicity in human RBC assessed as hemolysis upto 25 ug/ml; type: cell-based; details: erythrocyte
# Pseudomonas aeruginosa [3] = experiment: Antimicrobial activity against Pseudomonas aeruginosa CUN 4158-02 by broth microdilution method; type: functional
# Staphylococcus aureus [4] = experiment: Antimicrobial activity against Staphylococcus aureus ATCC 25923 by broth microdilution method; type: functional
# Pseudomonas aeruginosa [5] = experiment: Antimicrobial activity against Pseudomonas aeruginosa ATCC 27853 by broth microdilution method; type: functional
# [6] = test system: Bordetella bronchiseptica; experiment: Antimicrobial activity against Bordetella bronchiseptica CUN11844-99 by broth microdilution method; type: functional
# Staphylococcus aureus [7] = experiment: Antimicrobial activity against methicillin-resistant Staphylococcus aureus ATCC 43300 by broth microdilution method; type: functional
# Acinetobacter baumannii = experiment: Antimicrobial activity against […] Acinetobacter baumannii ATCC 19606 by broth microdilution method; type: functional
# [8] = test system: Stenotrophomonas maltophilia; experiment: Antimicrobial activity against […] Stenotrophomonas maltophilia CUN 3998-00 by broth microdilution method; type: functional
# Homo sapiens [9] = species on record: Homo sapiens; experiment: Antiinflammatory activity in human MNC assessed as inhibition of LPS-induced TNFalpha production at compound: LPS ratio of 100:1 weight percent by ELISA; type: functional
# Mus musculus [10] = experiment: Antisepsis activity in Pseudomonas aeruginosa LPS-induced C57BL/6 mouse lethal endotoxin shock model assessed as mouse survival at 12.5 ug, ip administered immediately after LPS challenge; type: functional, organism-based
# Escherichia coli = experiment: Antimicrobial activity against Escherichia coli ATCC 25922 by broth microdilution method; type: functional
# Mus musculus [11] = experiment: Antisepsis activity in Salmonella enterica serovar Minnesota R60 LPS-induced C57BL/6 mouse lethal endotoxin shock model assessed as mouse survival at 12.5 ug, ip administered immediately after LPS challenge; type: functional, organism-based
# Homo sapiens [12] = species on record: Homo sapiens; experiment: Antiinflammatory activity in human MNC assessed as inhibition of LPS-induced TNFalpha production at compound: LPS ratio of 10:1 weight percent by ELISA; type: functional
# Homo sapiens [13] = species on record: Homo sapiens; experiment: Antiinflammatory activity in human MNC assessed as inhibition of LPS-induced TNFalpha production at compound: LPS ratio of <10:1 weight percent by ELISA; type: functional
# HaCaT [14] = experiment: Cytotoxicity against human HaCaT cells at 10 ug/ml by MTT assay; type: cell-based
# Mus musculus [15] = experiment: Antisepsis activity in Salmonella enterica serovar Minnesota R60 LPS-induced C57BL/6 mouse lethal endotoxin shock model assessed as mouse survival at 2.5 ug, ip administered immediately after LPS challenge measured 48 hrs post LPS challenge; type: functional, organism-based
# HaCaT [16] = experiment: Cytotoxicity against human HaCaT cells at 100 ug/ml by MTT assay; type: cell-based
# Jurkat [17] = experiment: Cytotoxicity against human Jurkat cells assessed as effect on respiration rate at 10 ug/ml by Chip-based Bionas system; type: cell-based
# PBMC [18] = experiment: Cytotoxicity against human PBMC cells assessed as effect on respiration rate at 10 ug/ml by Chip-based Bionas system; type: cell-based
# Jurkat [19] = experiment: Cytotoxicity against human Jurkat cells assessed as effect on respiration rate at 100 ug/ml by Chip-based Bionas system; type: cell-based
# HepG2 [20] = experiment: Cytotoxicity against human HepG2 cells assessed as effect on respiration rate at 10 ug/ml by Chip-based Bionas system; type: cell-based
# PBMC [21] = experiment: Cytotoxicity against human PBMC cells assessed as effect on respiration rate at 100 ug/ml by Chip-based Bionas system; type: cell-based
# HeLa [22] = experiment: Cytotoxicity against human HeLa cells at 10 ug/ml by MTT assay; type: cell-based
# [23] = Cytotoxicity against human LS 174T cells assessed as effect on respiration rate at 100 ug/ml by Chip-based Bionas system; type: cell-based; details: ls174t
# Lipopolysaccharide (LPS) = experiment: Binding affinity to Salmonella enterica serovar Minnesota R60 LPS at [compound]/[LPS] ratio of 0.3 by isothermal titration calorimetry; details: Salmonella enterica subsp. enterica serovar Minnesota
# [24] = Cytotoxicity against human LS 174T cells assessed as effect on respiration rate at 10 ug/ml by Chip-based Bionas system; type: cell-based; details: ls174t
# HeLa [25] = experiment: Cytotoxicity against human HeLa cells at 100 ug/ml by MTT assay; type: cell-based
# HepG2 [26] = experiment: Cytotoxicity against human HepG2 cells assessed as effect on respiration rate at 100 ug/ml by Chip-based Bionas system; type: cell-based
Compound,MIC (Staphylococcus aureus [1]) [µg/mL],Activity [2],MIC (Pseudomonas aeruginosa [3]) [µg/mL],MIC (Staphylococcus aureus [4]) [µg/mL],MIC (Pseudomonas aeruginosa [5]) [µg/mL],MIC [6] [µg/mL],MIC (Staphylococcus aureus [7]) [µg/mL],MIC (Acinetobacter baumannii) [µg/mL],MIC [8] [µg/mL],inhibition (Homo sapiens [9]),Activity (Mus musculus [10]),MIC (Escherichia coli) [µg/mL],Activity (Mus musculus [11]),other results
N=C(N)NCCC[C@H](NC(=O)CNC(=O)[C@H](CCCCN)NC(=O)[C@H](Cc1ccccc1)NC(=O)[C@H](CCCCN)NC(=O)[C@H](Cc1c[nH]c2ccccc12)NC(=O)[C@H](CCCNC(=N)N)NC(=O)[C@H](Cc1ccccc1)NC(=O)[C@H](CCCCN)NC(=O)[C@H](CCCCN)NC(=O)[C@H](Cc1ccc(O)cc1)NC(=O)[C@H](CCCNC(=N)N)NC(=O)[C@H](CCCNC(=N)N)NC(=O)CN)C(=O)N[C@@H](Cc1c[nH]c2ccccc12)C(=O)N[C@@H](Cc1ccccc1)C(=O)N[C@@H](Cc1c[nH]c2ccccc12)C(=O)N[C@@H](Cc1ccccc1)C(=O)NCC(=O)O (H-GRRYKKFRWKFKGRWFWFG-OH),8,Non-toxic,32,8,16,128,8,16,32,Active,inactive,16,,
POLYMYXIN B,,,,,,,,,,,Active,,Active,inhibition (Homo sapiens [12]): Active; inhibition (Homo sapiens [13]): Active
N=C(N)NCCC[C@H](NC(=O)CNC(=O)[C@H](CCCCN)NC(=O)[C@H](CCCNC(=N)N)NC(=O)[C@H](Cc1ccccc1)NC(=O)[C@H](CCCCN)NC(=O)[C@H](Cc1c[nH]c2ccccc12)NC(=O)[C@H](CCCNC(=N)N)NC(=O)[C@H](Cc1ccccc1)NC(=O)[C@H](CCCNC(=N)N)NC(=O)[C@H](CCCNC(=N)N)NC(=O)[C@H](Cc1ccc(O)cc1)NC(=O)[C@H](CCCCN)NC(=O)[C@H](CCCCN)NC(=O)CN)C(=O)N[C@@H](Cc1ccccc1)C(=O)N[C@@H](Cc1c[nH]c2ccccc12)C(=O)N[C@@H](Cc1ccccc1)C(=O)N[C@@H](Cc1c[nH]c2ccccc12)C(=O)NCC(=O)O (H-GKKYRRFRWKFRKGRFWFWG-OH),16,,32,16,16,4,16,16,64,Active,inactive,16,,
N=C(N)NCCC[C@H](NC(=O)[C@H](Cc1ccc(O)cc1)NC(=O)[C@H](CCCCN)NC(=O)[C@H](CCCCN)NC(=O)[C@H](CS)NC(=O)CN)C(=O)N[C@@H](CCCNC(=N)N)C(=O)N[C@@H](Cc1ccccc1)C(=O)N[C@@H](CCCNC(=N)N)C(=O)N[C@@H](Cc1c[nH]c2ccccc12)C(=O)N[C@@H](CCCCN)C(=O)N[C@@H](Cc1ccccc1)C(=O)N[C@@H](CCCCN)C(=O)NCC(=O)N[C@@H](CCCCN)C(=O)N[C@@H](Cc1ccccc1)C(=O)N[C@@H](Cc1c[nH]c2ccccc12)C(=O)N[C@@H](Cc1ccccc1)C(=O)N[C@@H](Cc1c[nH]c2ccccc12)C(=O)NCC(=O)O,,Non-toxic,,,,,,,,Active,,,Active,Activity (HaCaT [14]): Non-toxic; Activity (Mus musculus [15]): Active; Activity (HaCaT [16]): Toxic; Activity (Jurkat [17]): Non-toxic; Activity (PBMC [18]): Non-toxic; Activity (Jurkat [19]): Toxic; Activity (HepG2 [20]): Non-toxic; Activity (PBMC [21]): Toxic; Activity (HeLa [22]): Non-toxic; Activity [23]: Toxic; Activity (Lipopolysaccharide (LPS)): Active; Activity [24]: Non-toxic; Activity (HeLa [25]): Toxic; Activity (HepG2 [26]): Toxic
